Some test systems named below: NCI-H23 lung; M14 melanoma; RPMI-8226 leukemia; CAKI-1 renal; MCF7 breast; DU-145 prostate; EKVX NSCLC; ACHN renal; MOLT-4 leukemia; RXF 393 renal.
What all share (experiment): growth of human tumour cells (NCI), 48 h

Results on 14 compounds are retold here after PubChem BioAssay (NCI).

Each structure is given as a SMILES string.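 Each compound was tested at five concentrations against cells in 96-well plates for 48 hours. Abbreviation: GI50, concentration required for 50% inhibition of growth. TGI marks complete inhibition of growth.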 Some results are limits rather than exact numbers.

As to `O=C(COc1ccc(/C=C2\CSc3ccccc3C2=O)cc1)Nc1nccs1`, the GI50 is 11.7 µM in the assay on NCI-H23 lung; 9.38 µM with M14 melanoma; 2.13 µM with RPMI-8226 leukemia; 12.8 µM with CAKI-1 renal; 3.43 µM with MCF7 breast; 4.2 µM in the assay with DU-145 prostate. Further, the results for the GI50 in the assay with EKVX NSCLC and in the assay on ACHN renal were 17.3 µM and 13.5 µM, respectively. For the same compound, the TGI with NCI-H23 lung came to 24.3 µM; in the assay with M14 melanoma, 21.2 µM; with RPMI-8226 leukemia, 6.7 µM; with CAKI-1 renal, 25.3 µM; in the assay with MCF7 breast, 10.6 µM; with DU-145 prostate, 14.3 µM. Besides, the TGI with EKVX NSCLC is 31.1 µM; in the assay with ACHN renal, 26.4 µM.

`O=c1[nH]cnc2cccc(Cl)c12`: the TGI with NCI-H23 lung, with M14 melanoma, in the assay with CAKI-1 renal, in the assay on MCF7 breast, in the assay on MOLT-4 leukemia and in the assay with DU-145 prostate was greater than 100 µM each time. The TGI in the assay on EKVX NSCLC, in the assay with ACHN renal and with RXF 393 renal was greater than 100 µM each time.

Consider `COc1ccc(-c2c[nH]c(=S)n2-c2ccc(OC)cc2)cc1`, for which the GI50 in the assay on NCI-H23 lung was greater than 50 µM; in the assay on RPMI-8226 leukemia it was 20.4 µM; with CAKI-1 renal, greater than 50 µM; with MCF7 breast, greater than 50 µM; with MOLT-4 leukemia it was greater than 50000 nM; with DU-145 prostate it was greater than 50 µM. The GI50 in the assay with EKVX NSCLC, in the assay on ACHN renal and in the assay on RXF 393 renal was greater than 50 µM throughout. Further, the TGI in the assay with NCI-H23 lung, in the assay with RPMI-8226 leukemia, with CAKI-1 renal, in the assay on MCF7 breast, in the assay on MOLT-4 leukemia and with DU-145 prostate was greater than 50 µM in each case. Moreover, the TGI in the assay with EKVX NSCLC, with ACHN renal and in the assay with RXF 393 renal was greater than 50 µM throughout.

With `O=C(Nc1ccc(-n2cc(-c3ccncc3)c(-c3ccc(Cl)c(O)c3)n2)cc1)Nc1ccc(Cl)c(C(F)(F)F)c1`, the GI50 with NCI-H23 lung was 1.67 µM; in the assay with M14 melanoma it was 1.43 µM; in the assay on CAKI-1 renal it was 3.01 µM; with MCF7 breast, 2.12 µM; with MOLT-4 leukemia, 1140 nM; in the assay on DU-145 prostate, 1.84 µM. Also, the GI50 with EKVX NSCLC was 3.05 µM; with ACHN renal it was 1.78 µM; in the assay on RXF 393 renal it was 0.755 µM. The TGI with NCI-H23 lung was determined as 3.43 µM; in the assay on M14 melanoma it was 3.11 µM; in the assay on CAKI-1 renal, 15.3 µM; with MCF7 breast it was 5.65 µM; in the assay on MOLT-4 leukemia, 6.77 µM; in the assay on DU-145 prostate, 3.85 µM. Also, the TGI stood at 14.6 µM in the assay on EKVX NSCLC, 4.94 µM with ACHN renal and 2.31 µM in the assay with RXF 393 renal.

For the compound `CC(C)OC(=O)NNc1cc(Cl)ccc1Cl`, the TGI in the assay on NCI-H23 lung, in the assay with M14 melanoma, in the assay with RPMI-8226 leukemia, in the assay on CAKI-1 renal, in the assay with MCF7 breast and in the assay on MOLT-4 leukemia was greater than 100 µM each time. The TGI in the assay with DU-145 prostate, in the assay with EKVX NSCLC and in the assay with ACHN renal was greater than 100 µM in each case.

Consider `N=C(N)SCc1cccc(-c2nc3ccccc3c(=O)o2)c1`, for which the TGI with NCI-H23 lung, with M14 melanoma, in the assay on RPMI-8226 leukemia, in the assay on CAKI-1 renal, in the assay with MCF7 breast and with DU-145 prostate was greater than 100 µM in each case. Further, the TGI in the assay on EKVX NSCLC, in the assay with ACHN renal and in the assay with RXF 393 renal was greater than 100 µM throughout.

Take `CC(=O)/C=C/c1ccc(C#Cc2ccccc2)s1`: the GI50 in the assay on NCI-H23 lung was 14.4 µM; in the assay on M14 melanoma it was 15.7 µM; in the assay with RPMI-8226 leukemia, 20.7 µM; in the assay with CAKI-1 renal, 19.3 µM; with MCF7 breast, 7.6 µM; with DU-145 prostate, 10.8 µM. Further, the GI50 in the assay on EKVX NSCLC is 17.7 µM; with ACHN renal it was 16.3 µM; in the assay on RXF 393 renal, 16.2 µM. Also, the TGI was 27.4 µM in the assay on NCI-H23 lung; 29.1 µM with M14 melanoma; 38 µM in the assay on RPMI-8226 leukemia; 36.2 µM with CAKI-1 renal; 65 µM with MCF7 breast; 24 µM in the assay with DU-145 prostate. The results for the TGI in the assay on EKVX NSCLC, in the assay with ACHN renal and with RXF 393 renal were 31.6 µM, 29.8 µM and 33 µM, respectively.

Regarding `Oc1cn(-c2ccc(Cl)cc2)nc1-c1n[nH]c(=S)n1C1CCCCC1`, the GI50 is 0.322 µM in the assay with NCI-H23 lung; 0.682 µM in the assay on M14 melanoma; 0.248 µM in the assay on RPMI-8226 leukemia; 0.389 µM in the assay with CAKI-1 renal; 500 nM in the assay with MOLT-4 leukemia; 0.502 µM with DU-145 prostate. Besides, the GI50 was 15.5 µM in the assay with EKVX NSCLC and greater than 24.6 µM with RXF 393 renal. For the same compound, the TGI is 1.98 µM in the assay with NCI-H23 lung; 38.7 µM with M14 melanoma; 30.9 µM in the assay with RPMI-8226 leukemia; greater than 100 µM with CAKI-1 renal; greater than 100 µM in the assay with MCF7 breast; greater than 29 µM in the assay on MOLT-4 leukemia. For the same compound, the TGI is greater than 33.9 µM in the assay with DU-145 prostate, greater than 100 µM in the assay with EKVX NSCLC and greater than 100 µM with RXF 393 renal.

Take `COCCOc1cnc2ccn([C@H](C)c3nnc4c(F)cc(-c5cnn(C)c5)cn34)c(=O)c2c1`: the GI50 is greater than 100 µM in the assay on NCI-H23 lung; greater than 100 µM in the assay on M14 melanoma; greater than 100 µM in the assay on RPMI-8226 leukemia; greater than 100 µM in the assay with MCF7 breast; greater than 100000 nM in the assay on MOLT-4 leukemia; greater than 100 µM with DU-145 prostate. The GI50 in the assay with EKVX NSCLC, in the assay on ACHN renal and with RXF 393 renal was greater than 100 µM throughout. Further, the TGI with NCI-H23 lung, with M14 melanoma, with RPMI-8226 leukemia, with MCF7 breast, in the assay on MOLT-4 leukemia and in the assay with DU-145 prostate was greater than 100 µM each time. The TGI in the assay with EKVX NSCLC, in the assay with ACHN renal and in the assay on RXF 393 renal was greater than 100 µM each time.

On to `Cc1cc(C2CC(O)C(CO)O2)cc2c(=O)[nH]c(N)nc12` (stereo unspecified), for which the GI50 was greater than 100 µM with NCI-H23 lung; greater than 100 µM with M14 melanoma; greater than 100 µM with RPMI-8226 leukemia; greater than 100 µM in the assay on CAKI-1 renal; greater than 100 µM in the assay with MCF7 breast; greater than 100000 nM in the assay on MOLT-4 leukemia. In addition, the GI50 with DU-145 prostate, in the assay on EKVX NSCLC and in the assay on RXF 393 renal was greater than 100 µM throughout. Besides, the TGI with NCI-H23 lung, in the assay on M14 melanoma, in the assay on RPMI-8226 leukemia, in the assay with CAKI-1 renal, with MCF7 breast and in the assay with MOLT-4 leukemia was greater than 100 µM in each case. In addition, the TGI in the assay on DU-145 prostate, in the assay with EKVX NSCLC and in the assay on RXF 393 renal was greater than 100 µM each time.

Regarding `O=C(O)CC[N+]1=CCC(c2ccccc2)(c2ccccc2)O1`, the TGI in the assay with NCI-H23 lung, in the assay with M14 melanoma, in the assay on CAKI-1 renal, with MCF7 breast, in the assay with MOLT-4 leukemia and with DU-145 prostate was greater than 100 µM in each case. Moreover, the TGI in the assay with EKVX NSCLC, in the assay on ACHN renal and in the assay with RXF 393 renal was greater than 100 µM throughout.

`CC(=O)O[C@H](C[C@H](C(C)C)N(C)C(=O)[C@@H](NC(=O)[C@H]1CCCCN1C)C(C)C)c1nc(C(=O)N[C@@H](Cc2ccccc2)C[C@H](C)C(=O)O)c(CCOCc2ccccc2)s1`: the GI50 was less than 0.001 µM with NCI-H23 lung; less than 0.001 µM in the assay on RPMI-8226 leukemia; less than 0.001 µM in the assay on CAKI-1 renal; less than 0.001 µM in the assay on MCF7 breast; less than 1 nM in the assay with MOLT-4 leukemia; less than 0.001 µM in the assay with DU-145 prostate. Moreover, the GI50 is less than 0.001 µM with EKVX NSCLC and 0.00105 µM with ACHN renal. Further, the TGI was greater than 10 µM in the assay with NCI-H23 lung; greater than 10 µM in the assay on RPMI-8226 leukemia; greater than 10 µM in the assay with CAKI-1 renal; greater than 10 µM in the assay with MCF7 breast; greater than 10 µM in the assay with MOLT-4 leukemia; 0.00119 µM with DU-145 prostate. In addition, the TGI with EKVX NSCLC and in the assay on ACHN renal was greater than 10 µM in each case.

As to `COc1cc(C2=C(c3cn(C)c4ccccc34)COC2=O)cc(OC)c1OC`, the GI50 is 0.233 µM in the assay on NCI-H23 lung; 0.0349 µM in the assay with M14 melanoma; 0.109 µM in the assay on RPMI-8226 leukemia; 0.0531 µM in the assay with CAKI-1 renal; 0.0274 µM with MCF7 breast; 55 nM in the assay on MOLT-4 leukemia. Further, the GI50 in the assay with DU-145 prostate was 0.211 µM; in the assay with EKVX NSCLC, 0.121 µM; in the assay on RXF 393 renal, 0.133 µM. Also, the TGI in the assay on NCI-H23 lung was 3.04 µM; in the assay on M14 melanoma, 1.17 µM; in the assay on RPMI-8226 leukemia it was 1.95 µM; in the assay with CAKI-1 renal, 3.42 µM; in the assay with MCF7 breast it was greater than 19.8 µM; in the assay on MOLT-4 leukemia, greater than 28.2 µM. Moreover, the TGI was greater than 100 µM with DU-145 prostate, 5.42 µM in the assay on EKVX NSCLC and 0.555 µM in the assay with RXF 393 renal.

For the compound `Cn1cc(C2=C(c3cn(CCCCCN)c4ccccc34)C(=O)NC2=O)c2ccccc21`, the GI50 in the assay on NCI-H23 lung was 9.98 µM; with M14 melanoma it was 12.4 µM; in the assay with RPMI-8226 leukemia it was 9.24 µM; with CAKI-1 renal it was 8.25 µM; in the assay with MCF7 breast, 5.51 µM; in the assay with MOLT-4 leukemia it was 8090 nM. The GI50 in the assay on DU-145 prostate is 13.8 µM; with ACHN renal, 10.9 µM; in the assay on RXF 393 renal it was 3.66 µM. Besides, the TGI in the assay on NCI-H23 lung was greater than 25 µM; in the assay with M14 melanoma, greater than 25 µM; with RPMI-8226 leukemia, greater than 25 µM; in the assay with CAKI-1 renal, greater than 25 µM; with MCF7 breast it was greater than 18 µM; in the assay with MOLT-4 leukemia it was greater than 22.9 µM. In addition, the TGI is greater than 25 µM with DU-145 prostate, greater than 25 µM in the assay with ACHN renal and 9.47 µM with RXF 393 renal.
